# According to patent US20240166641A1, “HETEROCYCLES AND USES THEREOF” (Kumquat Biosciences Inc., priority 2021, published 2024):
# Tests used:
# [1] = test system: OT-1 cells; assay: T-cell activation: intracellular production of IFNγ and TNFα in exhausted OT-1 cells; type: cell-based; conditions: 10 uM compound, OT-1 cells restimulated with 1 μM OVA, read-out: % TNFa + /IFNg + production in compound-treated cells (uM compound) relative to negative control (DMSO)
# Experimental: 1*10^6 OT-1 cells are seeded in a 24well in a volume of 1 mL of RPMI/10% FCS, and activated with 10 nM OVA protein for 48 h. Cells are then split 1:4 into 96well plates after two washes in warm media. To induce exhaustion, cells are then expanded for 3 days in the presence of vehicle control or a compound described herein (e.g., PTPN2 inhibitor) various concentrations, as well as 5 ng/ml IL-7 and 5 ng/ml IL-15, with the addition of fresh OVA on each day. After this point, cells are treated with Brefeldin A and restimulated with 1 μM of OVA for 4-6h, and cells are stained to assess production of IFNγ and TNFα intracellularly by flow cytometry. The results are shown as increase in percentage production of IFNγ and TNFα in cells treated with an exemplified compound at 10 uM, relative to a negative control (DMSO) of cells without being treated with the compound but merely DMSO (a solvent in which exemplified compounds are dissolved). See Table 10 below summarizes percentage increase in IFNγ and TNFα intracellular production in cells treated with an exemplified compound (at 10 uM) or without it, relative to a negative control (DMSO).
# [2] = biological target: T1, PTPN2 (Homo sapiens, UniProt P17706); assay: Phosphatase activity assay (Bio-Biochem-DiFMUP), PTPN2; type: biochemical; conditions: DiFMUP substrate, room temperature
# T1 sequence (P17706 1-415): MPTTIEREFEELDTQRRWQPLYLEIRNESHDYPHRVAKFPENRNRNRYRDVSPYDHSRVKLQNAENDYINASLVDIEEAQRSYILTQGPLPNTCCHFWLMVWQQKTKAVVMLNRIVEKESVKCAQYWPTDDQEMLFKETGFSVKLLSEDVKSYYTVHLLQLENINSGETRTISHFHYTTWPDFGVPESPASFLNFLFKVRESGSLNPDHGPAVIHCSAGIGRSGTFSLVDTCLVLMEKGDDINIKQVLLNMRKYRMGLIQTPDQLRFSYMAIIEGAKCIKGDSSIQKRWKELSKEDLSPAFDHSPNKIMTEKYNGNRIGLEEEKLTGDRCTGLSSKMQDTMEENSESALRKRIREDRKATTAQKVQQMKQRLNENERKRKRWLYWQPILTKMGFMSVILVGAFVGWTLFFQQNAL
# How it was run: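 Buffer was 50 mM Bis-Tris pH 6.3, 2 mM EDTA, 5 mM DMH, with 10 μM FDP or DiFMUP substrate, enzyme added last, at room temperature. Fluorescent product was read continuously for 15–30 min (DiFMU ex 360/em 450 nm; FMP ex 440/em 530 nm). Initial rates against 10-point inhibitor series were fitted with a 4-parameter equation to give IC50.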
# [3] = test system: mouse C57BL/6 T cells; assay: pSTAT1 signaling in IFNα-stimulated T cells, flow cytometry; type: cell-based; conditions: T-cell, 10 uM compound, T cells stimulated for 5 hours by IFNα, read-out: % pSTAT1 in cells treated with subject compounds relative to negative control (DMSO)
# Experimental: IFNα signaling in mouse C57BL/6 T cells promotes activation of multiple signaling pathways associated with antitumor responses. A key target of this signaling is phosphorylation of the transcription factor STAT1. […] T cells are stimulated for 5 hours by IFNα in the presence or absence of exemplified compounds disclosed herein (e.g., PTPN2 inhibitors) and stained intracellularly with antibodies for phosphorylated STAT1 and then analyzed by flow cytometry. Enhancement of phosphorylation of STAT1 is read out as a percentage over the DMSO control.
IC50 [2] [nM],SMILES,activity at 10 µM [1] [%],activity at 10 µM [3] [%]
≤ 1000,CN(C)CCOc1ccc2cc(O)c(N3CC(=O)NS3(=O)=O)c(F)c2n1 [Compound 178],168,172
≤ 1000,"CC(C)CCOc1ccc2cc(O)c(N3CC(=O)NS3(=O)=O)c(F)c2n1 [Compound 135, 5-(8-fluoro-6-hydroxy-2-(isopentyloxy)quinolin-7-yl)-1,2,5-thiadiazolidin-3-one 1,1-dioxide]",504,255
≤ 1000,CNc1ccc2cc(O)c(N3CC(=O)NS3(=O)=O)c(F)c2n1 [Compound 153],132,249
≤ 1000,CC(C)CCNc1ccc2cc(O)c(N3CC(=O)NS3(=O)=O)c(F)c2n1 [Compound 117],236,210
≤ 1000,O=C1CN(c2c(O)cc3ccc(OCC4CCS(=O)(=O)CC4)nc3c2F)S(=O)(=O)N1 [Compound 143],174,161
≤ 1000,COc1ccc2cc(O)c(N3CC(=O)NS3(=O)=O)c(F)c2n1 [Compound 154],152,303
≤ 1000,CN1CCCC(COc2ccc3cc(O)c(N4CC(=O)NS4(=O)=O)c(F)c3n2)C1 (stereo not drawn) [Compound 176],193,229
